Data published in patent US5567716A, “Trans and cis traumatic acid salts having cicatrizant activity associated to bacteriostatic, antiviral, antibiotic or antifungal activity” (priority 1992, dated 1996).

How the values were obtained:
E.coli ATCC 35218 = test: microbe, parasite or virus in culture; format: cell-based; conditions: Table 2.b)3; test concentrations given in μg/ml
Protocol: (§1) 1. Culture Medium: Tryprone Soy Broth (TBS) - Biogenetics
(§2) Microbic standard strains from American Type Culture Collection (ATCC) were used, chosen among aerobic Gram positive and negative as follows:
(§3) The broths culture of the different species are prepared growing the standard strain (kept in Tryptic Soy Agar (TSA) slent at 5° C.) in Tryptone Soy Broth (TSB) for 12 hours at 37° C. 10 ml are then taken up from each culture, centrifugated for 3 times at 3500 PM washing each time the sediment using 10 ml of sterile saline solution. The sediment is resuspended in the saline solution until obtainment of a turbidity corresponding to the Mc Farland standard solution (the suspension title must be […] UFC/ml).
(§4) The compounds, dissolved as stock solution, were added to test tubes containing 5 ml TBS in order to obtain the desired Final concentration 10000; 5000; 1000; 200; 40; 2; 0.4; 0.05 μg/ml (culture medium maximal dilution=1/10).
(§5) 50 μl of bacterial suspension are added to the tube containing the compounds to be tested and incubated at 37° C.: the densitometric determination is made in comparison with Mc Farland standard solution 24 and 48 hours later.
(§6) After the incubation time the suspensions ape gently agitated; 50 μl of each suspension are inoculated in tubes containing […] of TSB and incubated at 37° C.; the densitometric determination is made 48 hours later.
(§7) BMC is defined by comparison between the two densitometric evaluation.

Ps.aeruginosa ATCC 35422 = test: Evaluation of bacteriostatic minimal concentration (BMC); format: cell-based; conditions: Table 2.b)1; test concentrations given in μg/ml
Protocol: as §1, §2, §3, §4, §5, §6, §7

St.aureus ATCC 65380 = test: as above; format: cell-based; conditions: Table 2.b)2; test concentrations given in μg/ml
Protocol: as §1, §2, §3, §4, §5, §6, §7

[1] = for organic solvent solubility: dmso
[2] = system: St.epidermidis ATCC 14990; test: Evaluation of bacteriostatic minimal concentration (BMC); format: cell-based; conditions: Table 2.b)4; test concentrations given in μg/ml
Protocol: as §1, §2, §3, §4, §5, §6, §7

C.albicans ATCC 10231 = test: as above; format: cell-based; conditions: Table 2.b)6; test concentrations given in μg/ml
Protocol: as §1, §2, §3, §4, §5, §6, §7

B.subtilis ATCC 6633 = test: as above; format: cell-based; conditions: Table 2.b)5; test concentrations given in μg/ml
Protocol: as §1, §2, §3, §4, §5, §6, §7

Balb/C 3T3 fibroblasts = test: Cell growth of Balb/C 3T3 fibroblasts, crystal violet colorimetry (1.1b); format: cell-based, Mouse; conditions: for cell growth t2/t1: 48 h/24 h, control 76.776
Protocol: Mouse Balb/C 3T3 fibroblasts were grown in DMEM medium supplemented with penicillin (100 units/ml) and streptomycin (0.1 mg/ml). For experimental purposes, cells are routinely inoculated in […] diameter culture dishes (5000cells/dish) and cultured overnight.
The compounds to be tested are solubilized in DMEM+10%FCS and DMSO to obtain the final concentration of 10^-5 M, 10^-6 M e 10^-7 M in 0.05% DMSO.
The cells number is measured 4, 24 and 48 hours after seeding. The cell growth is evaluated as t2/t1 ratio (%).

| Compound | MINIMAL BACTERIAL CONCENTRATION (E.coli ATCC 35218) | MINIMAL BACTERIAL CONCENTRATION (Ps.aeruginosa ATCC 35422) | MINIMAL BACTERIAL CONCENTRATION (St.aureus ATCC 65380) | organic solvent solubility [1] [µg/mL] | solubility in water [1] [µg/mL] | MINIMAL BACTERIAL CONCENTRATION [2] | MINIMAL BACTERIAL CONCENTRATION (C.albicans ATCC 10231) | MINIMAL BACTERIAL CONCENTRATION (B.subtilis ATCC 6633) | other results |
| --- | --- | --- | --- | --- | --- | --- | --- | --- | --- |
| NC[C@H]1O[C@H](O[C@H]2[C@H](O)[C@@H](O[C@H]3O[C@H](CO)[C@@H](O)[C@H](N)[C@H]3O)[C@H](N)C[C@@H]2N)[C@H](N)C[C@@H]1O.NC[C@H]1O[C@H](O[C@H]2[C@H](O)[C@@H](O[C@H]3O[C@H](CO)[C@@H](O)[C@H](N)[C@H]3O)[C@H](N)C[C@@H]2N)[C@H](N)C[C@@H]1O.O=C(O)/C=C/CCCCCCCCC(=O)O.O=C(O)/C=C/CCCCCCCCC(=O)O.O=C(O)/C=C/CCCCCCCCC(=O)O.O=C(O)/C=C/CCCCCCCCC(=O)O.O=C(O)/C=C/CCCCCCCCC(=O)O [Tobramycin Traumatate, tobramycin trans-traumatate] | 200.00 | 5,000 | 1,000.00 | > 10000 | > 10000 |  |  |  |  |
| silver trans-traumatate [Silver Traumatate] | 40.00 | 40.00 | 40.00 |  |  | 200.00 | > 10,000 | 200.00 | solubility in 5% NH3 ([1]; 5% nh3): > 10000 µg/mL |
| CCC[C@@H]1C[C@@H](C(=O)N[C@@H]([C@H]2O[C@H](SC)[C@H](O)[C@@H](O)[C@H]2O)[C@@H](C)O)N(C)C1.O=C(O)/C=C/CCCCCCCCC(=O)O (relative stereo) [Lincomycin Traumatate, lincomycin trans-traumatate] | 10,000.00 | 10,000.00 | 10,000.00 | > 10000 | > 10000 | 200.00 | 10,000.00 | 1,000.00 | promotion of cell growth (Balb/C 3T3 fibroblasts; 10^-5 to 10^-7 M, in words, lincomycin > rolitetracycline > erythromycin salt): capable to promote cell growth at all the tested doses; Cell density (Balb/C 3T3 fibroblasts; 4 h (t0), 10^-5M, control 0.300): 0.361; Cell density (Balb/C 3T3 fibroblasts; 4 h (t0), 10^-6M, control 0.300): 0.352; Cell density (Balb/C 3T3 fibroblasts; 4 h (t0), 10^-7M, control 0.300): 0.384; Cell density (Balb/C 3T3 fibroblasts; 24 h (t1), 10^-5M, control 0.481): 0.228; Cell density (Balb/C 3T3 fibroblasts; 24 h (t1), 10^-6M, control 0.481): 0.210; Cell density (Balb/C 3T3 fibroblasts; 24 h (t1), 10^-7M, control 0.481): 0.209; Cell density (Balb/C 3T3 fibroblasts; 48 h (t2), 10^-5M, control 0.849): 0.693; Cell density (Balb/C 3T3 fibroblasts; 48 h (t2), 10^-6M, control 0.849): 0.734; Cell density (Balb/C 3T3 fibroblasts; 48 h (t2), 10^-7M, control 0.849): 0.705; cell growth t2/t1 (Balb/C 3T3 fibroblasts; 10^-5M): 195.78%; cell growth t2/t1 (Balb/C 3T3 fibroblasts; 10^-6M): 246.29%; cell growth t2/t1 (Balb/C 3T3 fibroblasts; 10^-7M): 247.68%; cell growth effect compared to traumatic acid (Balb/C 3T3 fibroblasts; in words): more consistent if compared to the corresponding one of the parent compound traumatic acid |
| NC(=NCCCCCCN=C(N)N=C(N)Nc1ccc(Cl)cc1)N=C(N)Nc1ccc(Cl)cc1.O=C(O)/C=C/CCCCCCCCC(=O)O [Chlorhexidine Traumatate, chlorhexidine trans-traumatate] | 8.00 | 40.00 | 8.00 | > 10000 |  | 2.00 | 2.00 | 2.00 |  |
